Data published in PubChem BioAssay AID504443 (Sanford-Burnham Center for Chemical Genomics, 2011).
Activity calls are given as the source filed them. The rule behind the calls is not given here.

Test system: AML12 mouse hepatocytes, cytotoxicity
Assay: cytotoxicity in AML12 hepatocytes, SAR follow-up, cytotoxicity control, cell-based (AID 504443)

| SMILES | IC50 |
| --- | --- |
| CCOc1ccc(CCNC(=O)c2cc3ccsc3n2CC)cc1OCC | > 10 µM (inactive) |
| COc1ccc(CCNC(=O)Cn2cccc2C(=O)c2ccccc2C)cc1OC | > 10 µM (inactive) |
| CCOc1ccc(CCNC(=O)CCc2nnc3ccc(N4CCCCC4)nn23)cc1OCC | > 10 µM (inactive) |
| COc1ccc(CCNC(=O)CSc2cc(=O)n(C)c3ccccc23)cc1OC | > 10 µM (inactive) |
| CCOc1ccc(CCNC(=O)c2cc3ccsc3n2C)cc1OC | > 10 µM (inactive) |
| COc1ccc(CNC(=O)CSc2cc(=O)n(C)c3ccccc23)cc1OC | > 10 µM (inactive) |
| COc1ccc(CCNC(=O)c2cc3ccccc3n2C)cc1OC | > 10 µM (inactive) |
| CCn1c(C(=O)NCc2ccc3c(c2)OCO3)cc2sccc21 | > 10 µM (inactive) |
| COc1cc(CNC(=O)CSc2cc(=O)n(C)c3ccccc23)cc(OC)c1OC | > 10 µM (inactive) |
| CCOc1ccc(CCNC(=O)c2cc(-c3ccccc3)c(N3CCOCC3)s2)cc1OCC | > 10 µM (inactive) |
| CCOc1cc(CCNC(=O)c2cc(-c3ccccc3)c(N3CCOCC3)s2)ccc1OC | > 10 µM (inactive) |
| CCOc1cc(CCNC(=O)c2cc3ccccc3n2C)ccc1OC | > 10 µM (inactive) |
| CCn1c(C(=O)NCc2ccc(OC)c(OC)c2)cc2ccsc21 | > 10 µM (inactive) |
| CCOc1ccc(CCNC(=O)COC(=O)c2cc(OC)cc(OC)c2)cc1OCC | > 10 µM (inactive) |
| CCOc1cc(CCNC(=O)c2cc3sccc3[nH]2)ccc1OC | > 10 µM (inactive) |
| CCOc1ccc(CCNC(=O)CSc2cc(=O)n(C)c3ccccc23)cc1OC | > 10 µM (inactive) |
| O=C(NCCc1ccc2c(c1)OCO2)c1cc2sccc2[nH]1 | > 10 µM (inactive) |
| CCOc1ccc(CCNC(=O)CN2CCN(Cc3ccccc3C)C2=O)cc1OCC | > 10 µM (inactive) |
| COc1ccc(CCNC(=O)c2cc(-c3ccccc3)c(N3CCOCC3)s2)c(OC)c1OC | > 10 µM (inactive) |
| CCOc1ccc(CCNC(=O)COC(=O)c2ccc(OC)c(OC)c2OC)cc1OCC | > 10 µM (inactive) |
| CCOc1ccc(CCNC(=O)C2CC=CCC2C(=O)OC(C)C)cc1OCC (stereo not drawn) | > 10 µM (inactive) |
| CCOc1ccc(CCNC(=O)CCC(=O)N2CCOc3ccc(C)cc32)cc1OCC | > 10 µM (inactive) |
| CCn1c(C(=O)Nc2ccc3c(c2)OCO3)cc2sccc21 | > 10 µM (inactive) |
| CCOc1ccc(CCNC(=O)c2cc3sccc3n2CC)cc1OC | > 10 µM (inactive) |
| CCn1c(C(=O)NCc2cc(OC)c(OC)c(OC)c2)cc2sccc21 | > 10 µM (inactive) |
| CCOc1ccc(CCNC(=O)c2cc(-c3ccccc3)c(N3CCOCC3)s2)cc1OC | > 10 µM (inactive) |

| SMILES | IC50 |
| --- | --- |
| CCOc1ccc(CCNC(=O)CCC(=O)N2CCOc3ccccc32)cc1OCC | > 10 µM (inactive) |
| CCOc1ccc(CCNC(=O)c2cc3ccsc3n2C)cc1OCC | > 10 µM (inactive) |
| CCOc1cc(CCNC(=O)c2ccc(N3CCOCC3)s2)ccc1OC | > 10 µM (inactive) |
| COc1ccc(CNC(=O)c2cc(-c3ccccc3)c(N3CCOCC3)s2)cc1OC | > 10 µM (inactive) |
| CCOc1cc(CCNC(=O)CSc2cc(=O)n(C)c3ccccc23)ccc1OC | > 10 µM (inactive) |
| CCOc1ccc(CCNC(=O)c2cc3sc(Cl)cc3n2C)cc1OCC | > 10 µM (inactive) |
| CCn1c(C(=O)NCCc2ccc(OC)c(OC)c2)cc2ccsc21 | > 10 µM (inactive) |
| CCOc1ccc(CCNC(=O)COC(=O)c2cc(OC)c(OC)c(OC)c2)cc1OCC | > 10 µM (inactive) |
| Cn1c(=O)cc(SCC(=O)Nc2ccc3c(c2)OCO3)c2ccccc21 | > 10 µM (inactive) |
| CCOc1ccc(CCNC(=O)COc2cc(=O)n(C)c3ccccc23)cc1OCC | > 10 µM (inactive) |
| CCOc1ccc(CCNC(=O)CSc2cc(=O)n(CC)c3ccccc23)cc1OCC | > 10 µM (inactive) |
| CCOc1cc(CCNC(=O)COc2cc(=O)n(C)c3ccccc23)ccc1OC | > 10 µM (inactive) |
| CCOc1ccc(CCNC(=O)c2cc3ccsc3n2CC)cc1OC | > 10 µM (inactive) |
| CCOc1ccc(CCNC(=O)Cn2cccc2C(=O)c2ccccc2C)cc1OCC | > 10 µM (inactive) |
| CCOc1ccc(CCNC(=O)c2cc3sccc3n2CC)cc1OCC | > 10 µM (inactive) |
| CCOc1ccc(CCNC(=O)c2nnc(Cc3ccc(F)cc3)o2)cc1OCC | > 10 µM (inactive) |
| CCn1c(C(=O)Nc2ccc(OC)c(OC)c2)cc2ccsc21 | > 10 µM (inactive) |
| CCOc1cc(CCNC(=O)c2cc3ccsc3n2C)ccc1OC | > 10 µM (inactive) |
| COc1ccc(CNC(=O)c2cc3ccsc3n2C)cc1OC | > 10 µM (inactive) |
| CCOc1ccc(CCNC(=O)c2cc3sccc3n2C)cc1OCC | > 10 µM (inactive) |
| CCOc1ccc(CCNC(=O)CCC(=O)N2CCSc3ccccc32)cc1OCC | > 10 µM (inactive) |
| CCOc1cc(CCNC(=O)c2cc3sccc3n2CC)ccc1OC | > 10 µM (inactive) |
| COc1ccc(CCNC(=O)c2cc3sc(Cl)cc3n2C)cc1OC | > 10 µM (inactive) |
| COc1ccc(CCNC(=O)c2cc3sccc3n2C)cc1OC | > 10 µM (inactive) |
| Cn1c(C(=O)NCCc2ccc3c(c2)OCO3)cc2ccccc21 | > 10 µM (inactive) |
| Cn1c(C(=O)NCc2ccc3c(c2)OCO3)cc2ccsc21 | > 10 µM (inactive) |

| SMILES | IC50 |
| --- | --- |
| Cn1c(=O)cc(SCC(=O)NCc2ccc3c(c2)OCO3)c2ccccc21 | > 10 µM (inactive) |
| CCOc1ccc(CCNC(=O)CSc2cc(=O)n(C)c3cc(Cl)ccc23)cc1OCC | > 10 µM (inactive) |
| CCn1c(C(=O)Nc2ccc(OC)c(OC)c2)cc2sccc21 | > 10 µM (inactive) |
| CCn1c(C(=O)NCc2cc(OC)c(OC)c(OC)c2)cc2ccsc21 | > 10 µM (inactive) |
| Cn1c(=O)cc(SCC(=O)NCCc2ccc3c(c2)OCO3)c2ccccc21 | > 10 µM (inactive) |
| Cn1c(C(=O)Nc2ccc3c(c2)OCO3)cc2ccsc21 | > 10 µM (inactive) |
| COc1ccc(CCNC(=O)COC(=O)c2cc(OC)c(OC)cc2OC)cc1OC | > 10 µM (inactive) |
| CCOc1ccc(CCNC(=O)c2ccc(N3CCOCC3)s2)cc1OCC | > 10 µM (inactive) |
| CCn1c(C(=O)Nc2ccc3c(c2)OCO3)cc2ccsc21 | > 10 µM (inactive) |
| CCOc1ccc(CCNC(=O)CCc2nnc3ccc(N4CCCC4)nn23)cc1OCC | > 10 µM (inactive) |
| COc1ccc(CNC(=O)c2ccc(N3CCOCC3)s2)cc1OC | > 10 µM (inactive) |
| CCOc1ccc(CCNC(=O)c2cc3ccccc3n2C)cc1OC | > 10 µM (inactive) |
| CCOc1ccc(CCNC(=O)c2cc3sccc3[nH]2)cc1OCC | > 10 µM (inactive) |
| CCn1c(C(=O)NCCc2ccc(OC)c(OC)c2)cc2sc(Cl)cc21 | > 10 µM (inactive) |
| CCOc1ccc(CCNC(=O)CCc2nc(-c3ccc(OC)cc3)no2)cc1OCC | > 10 µM (inactive) |
| O=C(NCCc1ccc2c(c1)OCO2)c1cc(-c2ccccc2)c(N2CCOCC2)s1 | > 10 µM (inactive) |
| COc1ccc(CCNC(=O)c2cc(-c3ccccc3)c(N3CCOCC3)s2)cc1OC | > 10 µM (inactive) |
| CCOc1ccc(CCNC(=O)Cn2nc(C)c3c(C)n(-c4ccccc4)nc3c2=O)cc1OCC | > 10 µM (inactive) |
| CCOc1ccc(CCNC(=O)Cn2ncn3nc(-c4ccc(OC)cc4)cc3c2=O)cc1OCC | > 10 µM (inactive) |
| CCOc1ccc(CCNC(=O)CN2C(=O)c3cccnc3Oc3ccc(C)cc32)cc1OCC | > 10 µM (inactive) |
| CCOc1ccc(CCNC(=O)CSc2cc(=O)n(C)c3ccccc23)cc1OCC | > 10 µM (inactive) |
| COc1cc(CNC(=O)c2cc3ccsc3n2C)cc(OC)c1OC | > 10 µM (inactive) |
| COc1ccc(NC(=O)c2cc3ccsc3n2C)cc1OC | > 10 µM (inactive) |
| CCOc1ccc(CCNC(=O)Cn2cccc2C(=O)c2ccccc2)cc1OCC | > 10 µM (inactive) |
| CCOc1ccc(CCNC(=O)CCOc2cc(C)ccc2C)cc1OCC | > 10 µM (inactive) |
| O=C(NCCc1ccc2c(c1)OCO2)c1ccc(N2CCOCC2)s1 | > 10 µM (inactive) |
